Reference: PubChem BioAssay (NCI)
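Abbreviation: GI50, concentration required for 50% inhibition of growth. TGI: total growth inhibition.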

How the values were obtained:
Assay in all cases: growth of human tumour cells (NCI), 384-well format
786-0 renal = tested on: 786-0 renal
A498 renal = tested on: A498 renal
A549 NSCLC = tested on: A549 NSCLC
ACHN renal = tested on: ACHN renal
BT-549 breast = tested on: BT-549 breast
CAKI-1 renal = tested on: CAKI-1 renal
COLO 205 colon = tested on: COLO 205 colon
DU-145 prostate = tested on: DU-145 prostate
EKVX NSCLC = tested on: EKVX NSCLC
HCC-2998 colon = tested on: HCC-2998 colon
HCT-116 colon = tested on: HCT-116 colon
HCT-15 colon = tested on: HCT-15 colon
HL-60(TB) leukemia = tested on: HL-60(TB) leukemia
HOP-62 NSCLC = tested on: HOP-62 NSCLC
HOP-92 NSCLC = tested on: HOP-92 NSCLC
HS 578T breast = tested on: HS 578T breast
IGROV1 ovarian = tested on: IGROV1 ovarian
KM12 colon = tested on: KM12 colon
LOX IMVI melanoma = tested on: LOX IMVI melanoma
M14 melanoma = tested on: M14 melanoma
MALME-3M melanoma = tested on: MALME-3M melanoma
MCF7 breast = tested on: MCF7 breast
MDA-MB-231 breast = tested on: MDA-MB-231 breast
MDA-MB-435 melanoma = tested on: MDA-MB-435 melanoma
MDA-MB-468 breast = tested on: MDA-MB-468 breast
MOLT-4 leukemia = tested on: MOLT-4 leukemia
NCI-H226 lung = tested on: NCI-H226 lung
NCI-H23 lung = tested on: NCI-H23 lung
NCI-H322M lung = tested on: NCI-H322M lung
NCI-H460 NSCLC = tested on: NCI-H460 NSCLC
NCI-H522 lung = tested on: NCI-H522 lung
NCI/ADR-RES ovarian = tested on: NCI/ADR-RES ovarian
OVCAR-3 ovarian = tested on: OVCAR-3 ovarian
OVCAR-4 ovarian = tested on: OVCAR-4 ovarian
OVCAR-5 ovarian = tested on: OVCAR-5 ovarian
OVCAR-8 ovarian = tested on: OVCAR-8 ovarian
PC-3 prostate = tested on: PC-3 prostate
RPMI-8226 leukemia = tested on: RPMI-8226 leukemia
RXF 393 renal = tested on: RXF 393 renal
SF-268 CNS = tested on: SF-268 CNS
SF-295 CNS = tested on: SF-295 CNS
SF-539 CNS = tested on: SF-539 CNS
SK-MEL-28 melanoma = tested on: SK-MEL-28 melanoma
SK-MEL-5 melanoma = tested on: SK-MEL-5 melanoma
SK-OV-3 ovarian = tested on: SK-OV-3 ovarian
SN12C renal = tested on: SN12C renal
SNB-19 CNS = tested on: SNB-19 CNS
SNB-75 CNS = tested on: SNB-75 CNS
SR leukemia = tested on: SR leukemia
SW-620 colon = tested on: SW-620 colon
T-47D breast = tested on: T-47D breast
TK-10 renal = tested on: TK-10 renal
U251 glioblastoma = tested on: U251 glioblastoma
UACC-257 melanoma = tested on: UACC-257 melanoma
UACC-62 melanoma = tested on: UACC-62 melanoma
UO-31 renal = tested on: UO-31 renal

`C#CCC(Cc1cnc2nc(N)nc(N)c2n1)c1ccc(C(=O)N[C@@H](CCC(=O)O)C(=O)O)cc1` (some centres not stated) gave a GI50 (786-0 renal) of less than 10 nM, a TGI (786-0 renal) of less than 10 nM and a GI50 (A498 renal) of less than 10 nM. The TGI (A498 renal) was less than 10 nM, the GI50 (A549 NSCLC) was less than 10 nM and the TGI (A549 NSCLC) was less than 10 nM. For the same compound, the GI50 (ACHN renal) was less than 10 nM, the TGI (ACHN renal) was less than 10 nM and the GI50 (BT-549 breast) was less than 10 nM. The TGI (BT-549 breast) was less than 10 nM, the GI50 (CAKI-1 renal) was less than 10 nM and the TGI (CAKI-1 renal) was less than 10 nM. The GI50 (COLO 205 colon) was less than 10 nM, the TGI (COLO 205 colon) was less than 10 nM and the GI50 (DU-145 prostate) was less than 10 nM. It also gave a TGI (DU-145 prostate) greater than 100000 nM, a GI50 (EKVX NSCLC) of less than 10 nM and a TGI (EKVX NSCLC) of less than 10 nM. For the same compound, the GI50 (HCC-2998 colon) was less than 10 nM, the TGI (HCC-2998 colon) was greater than 100000 nM and the GI50 (HCT-116 colon) was less than 10 nM. The TGI (HCT-116 colon) was greater than 100000 nM, the GI50 (HCT-15 colon) was less than 10 nM and the TGI (HCT-15 colon) was greater than 100000 nM. For the same compound, the GI50 (HL-60(TB) leukemia) was less than 10 nM, the TGI (HL-60(TB) leukemia) was less than 10 nM and the GI50 (HOP-62 NSCLC) was less than 10 nM. For the same compound, the TGI (HOP-62 NSCLC) was less than 10 nM, the GI50 (HOP-92 NSCLC) was less than 10 nM and the TGI (HOP-92 NSCLC) was less than 10 nM. For the same compound, the GI50 (HS 578T breast) was less than 10 nM, the TGI (HS 578T breast) was less than 10 nM and the GI50 (IGROV1 ovarian) was less than 10 nM. For the same compound, the TGI (IGROV1 ovarian) was less than 10 nM, the GI50 (KM12 colon) was less than 10 nM and the TGI (KM12 colon) was greater than 100000 nM. For the same compound, the GI50 (LOX IMVI melanoma) was less than 10 nM, the TGI (LOX IMVI melanoma) was less than 10 nM and the GI50 (M14 melanoma) was less than 10 nM. The TGI (M14 melanoma) was less than 10 nM, the GI50 (MALME-3M melanoma) was less than 10 nM and the TGI (MALME-3M melanoma) was less than 10 nM. For the same compound, the GI50 (MCF7 breast) was less than 10 nM, the TGI (MCF7 breast) was greater than 100000 nM and the GI50 (MDA-MB-231 breast) was 905 nM. For the same compound, the TGI (MDA-MB-231 breast) was 2410 nM, the GI50 (MDA-MB-435 melanoma) was less than 10 nM and the TGI (MDA-MB-435 melanoma) was less than 10 nM. It also gave a GI50 (MDA-MB-468 breast) of less than 10 nM, a TGI (MDA-MB-468 breast) of less than 10 nM and a GI50 (MOLT-4 leukemia) of less than 10 nM. For the same compound, the TGI (MOLT-4 leukemia) was less than 10 nM, the GI50 (NCI-H226 lung) was less than 10 nM and the TGI (NCI-H226 lung) was less than 10 nM. It also gave a GI50 (NCI-H23 lung) of less than 10 nM, a TGI (NCI-H23 lung) of less than 10 nM and a GI50 (NCI-H322M lung) of less than 10 nM. It also gave a TGI (NCI-H322M lung) of less than 10 nM, a GI50 (NCI-H460 NSCLC) of less than 10 nM and a TGI (NCI-H460 NSCLC) greater than 100000 nM. It also gave a GI50 (NCI-H522 lung) of less than 10 nM, a TGI (NCI-H522 lung) of less than 10 nM and a GI50 (NCI/ADR-RES ovarian) of less than 10 nM. It also gave a TGI (NCI/ADR-RES ovarian) of less than 10 nM, a GI50 (OVCAR-3 ovarian) of less than 10 nM and a TGI (OVCAR-3 ovarian) of less than 10 nM. The GI50 (OVCAR-4 ovarian) was less than 10 nM, the TGI (OVCAR-4 ovarian) was less than 10 nM and the GI50 (OVCAR-5 ovarian) was less than 10 nM. It also gave a TGI (OVCAR-5 ovarian) of less than 10 nM, a GI50 (OVCAR-8 ovarian) of less than 10 nM and a TGI (OVCAR-8 ovarian) of less than 10 nM. The GI50 (PC-3 prostate) was less than 10 nM, the TGI (PC-3 prostate) was less than 10 nM and the GI50 (RPMI-8226 leukemia) was less than 10 nM. For the same compound, the TGI (RPMI-8226 leukemia) was less than 10 nM, the GI50 (RXF 393 renal) was less than 10 nM and the TGI (RXF 393 renal) was less than 10 nM. The GI50 (SF-268 CNS) was less than 10 nM, the TGI (SF-268 CNS) was less than 10 nM and the GI50 (SF-295 CNS) was less than 10 nM. The TGI (SF-295 CNS) was less than 10 nM, the GI50 (SF-539 CNS) was less than 10 nM and the TGI (SF-539 CNS) was less than 10 nM. It also gave a GI50 (SK-MEL-28 melanoma) of less than 10 nM, a TGI (SK-MEL-28 melanoma) of less than 10 nM and a GI50 (SK-MEL-5 melanoma) of less than 10 nM. For the same compound, the TGI (SK-MEL-5 melanoma) was less than 10 nM, the GI50 (SK-OV-3 ovarian) was less than 10 nM and the TGI (SK-OV-3 ovarian) was less than 10 nM. For the same compound, the GI50 (SN12C renal) was less than 10 nM, the TGI (SN12C renal) was less than 10 nM and the GI50 (SNB-19 CNS) was less than 10 nM. It also gave a TGI (SNB-19 CNS) of less than 10 nM, a GI50 (SNB-75 CNS) of less than 10 nM and a TGI (SNB-75 CNS) of less than 10 nM. The GI50 (SR leukemia) was less than 10 nM, the TGI (SR leukemia) was less than 10 nM and the GI50 (SW-620 colon) was less than 10 nM. It also gave a TGI (SW-620 colon) of less than 10 nM, a GI50 (T-47D breast) of less than 10 nM and a TGI (T-47D breast) of less than 10 nM. It also gave a GI50 (TK-10 renal) of less than 10 nM, a TGI (TK-10 renal) of less than 10 nM and a GI50 (U251 glioblastoma) of less than 10 nM. The TGI (U251 glioblastoma) was less than 10 nM, the GI50 (UACC-257 melanoma) was less than 10 nM and the TGI (UACC-257 melanoma) was less than 10 nM. The GI50 (UACC-62 melanoma) was less than 10 nM, the TGI (UACC-62 melanoma) was less than 10 nM and the GI50 (UO-31 renal) was less than 10 nM. It also gave a TGI (UO-31 renal) of less than 10 nM.
